In the NIST ThermoML archive (doi:10.1021/je900386p):
± gives the expanded uncertainty stated by the source.

Conditions: Crystal; visual observation

F[P-](F)(F)(F)(F)F.F[P-](F)(F)(F)(F)F.c1cc[n+](CCC[n+]2ccccc2)cc1 [1,1'-(1,3-propanediyl)bis-pyridinium hexafluorophosphate]
Normal melting temperature: 284.6 ± 1.4 °C
